# Experimental data taken from ChEMBL document CHEMBL4765295, “Synthesis, pharmacological profile and 2D-QSAR studies of curcumin-amino acid conjugates as potential drug candidates” (Eur J Med Chem, 2020).
# Several values for one entry are separate records, joined by “and”; a condition that tells them apart may be missing. Equal entries are not always repeated.
# Legend:
# [1] = tested on: Rattus norvegicus; assay: Anti-inflammatory activity in Wistar rat assessed as inhibition of carrageenan-induced paw edema at 10 mg/kg, ip pretreated for 1 hr followed by carrageenan challenge and measured after 4 hr relative to control (reference value: 0.00 +/-0.4 %); assay type: functional; conditions: time 5 hrs
# [2] = tested on: Mus musculus; assay: Analgesic activity in albino mouse assessed as protection at 10 mg/kg, ip measured after 60 mins by hot plate test (reference value: 0 %); assay type: functional; conditions: 1 h
# [3] = tested on: Splenocyte; assay: Immunomodulatory activity in Swiss albino mouse splenocytes assessed as cell viability at 10 uM by measuring stimulation index incubated for 72 hrs in presence of mitogenic stimulus phytohaemagglutinin by MTT assay (reference value: 1.00 +/- 0.24); assay type: functional
# [4] = tested on: Rattus norvegicus; assay: Antiinflammatory activity in Wistar rat model of carrageenan-induced paw edema assessed as reduction in thickness of paw edema at 10 mg/kg, ip pretreated for 1 hr followed by carrageenan challenge and measured after 4 hrs (reference value: 1.40 +/-0.10 mm); assay type: functional; conditions: time 5 hrs
# [5] = tested on: Mus musculus; assay: Analgesic activity in albino mouse assessed reduction in acetic acid-induced abdominal writhing by measuring writing reflex at 10 mg/kg, ip pretreated for 1 hr followed by acetic acid challenge and measured starting 5 mins post acetic acid challenge for 10 mins (reference value: 42.4 +/- 1.02); assay type: functional; conditions: time 75 min, 1.25 h
# [6] = tested on: Peritoneal macrophage; assay: Antiinflammatory activity in […] mouse Peritoneal macrophages assessed as inhibition of LPS-induced NO production at 10 uM preincubated for 1 hr followed by LPS stimulation measured after 24 hrs by Griess method relative to control (reference value: 0.0 %); assay type: functional; parameters: scale not given: the % may be the effect or the level left; conditions: time 25 hrs
# [7] = tested on: Mus musculus; assay: Analgesic activity in albino mouse assessed as forepaw licking/jumping latency time at 10 mg/kg, ip measured after 30 mins by hot plate test (reference value: 5.02 +/- 0.09 sec); assay type: functional; conditions: 0.5 h
# [8] = tested on: Rattus norvegicus; assay: Anti-inflammatory activity in Wistar rat assessed as inhibition of carrageenan-induced paw edema at 10 mg/kg, ip pretreated for 1 hr followed by carrageenan challenge and measured after 3 hr relative to control (reference value: 0.00 +/-0.1 %); assay type: functional; conditions: time 4 hrs
# [9] = tested on: Staphylococcus aureus; assay: Antibacterial activity against Staphylococcus aureus ATCC 25923 incubated for 18 hrs by agar dilution method; assay type: functional
# [10] = tested on: Salmonella typhimurium; assay: Antibacterial activity against Salmonella typhimurium ATCC 19430 incubated for 18 hrs by agar dilution assay; assay type: functional, Salmonella enterica subsp. enterica serovar Typhimurium; conditions: Salmonella enterica
# [11] = tested on: Pseudomonas aeruginosa; assay: Antibacterial activity against Pseudomonas aeruginosa ATCC 27853 incubated for 18 hrs by agar dilution assay; assay type: functional
# [12] = tested on: Rattus norvegicus; assay: Antiinflammatory activity in Wistar rat model of carrageenan-induced paw edema assessed as reduction in thickness of paw edema at 10 mg/kg, ip pretreated for 1 hr followed by carrageenan challenge and measured after 1 hr (reference value: 2.41 +/-0.05 mm); assay type: functional; conditions: time 1 hr after carrageenan
# [13] = Ulcerogenic activity in fasted albino mouse assessed as ulcer index in gastric mucosa at 10 mg/kg, po for 3 days (reference value: 0); assay type: toxicity, organism-based; conditions: in vivo, 72 h, time 3 day
# [14] = tested on: PC-3; assay: Antiproliferative activity against human PC3 cells assessed as inhibition of cell growth after 72 hrs by MTT assay; assay type: functional, cell-based; conditions: PC-3, 72 h
# [15] = Ulcerogenic activity in fasted albino mouse assessed as average severity of ulcers in gastric mucosa at 10 mg/kg, po for 3 days (reference value: 0); assay type: toxicity, organism-based; conditions: in vivo, 72 h, time 3 day
# [16] = Ulcerogenic activity in fasted albino mouse assessed as average number of ulcers in gastric mucosa at 10 mg/kg, po for 3 days (reference value: 0); assay type: toxicity, organism-based; conditions: in vivo, 72 h, time 3 day
# [17] = tested on: Mus musculus; assay: Analgesic activity in albino mouse assessed as protection at 10 mg/kg, ip measured after 120 mins by hot plate test relative to indomethacin; assay type: functional; conditions: 2 h
# [18] = tested on: Rattus norvegicus; assay: Antiinflammatory activity in Wistar rat model of carrageenan-induced paw edema assessed as reduction in thickness of paw edema at 10 mg/kg, ip pretreated for 1 hr followed by carrageenan challenge and measured after 3 hrs (reference value: 1.79 +/-0.07 mm); assay type: functional; conditions: time 4 hrs
# [19] = Toxicity in albino mouse assessed as induction of toxic symptoms at 50 to 100 mg/kg, ip measured after 24 hrs; assay type: organism-based; conditions: in vivo, dose 50-100 mg/kg
# [20] = tested on: Splenocyte; assay: Immunomodulatory activity in Swiss albino mouse splenocytes assessed as cell viability at 10 uM by measuring inhibition of stimulation index incubated for 72 hrs in presence of mitogenic stimulus phytohaemagglutinin by MTT assay relative to indomethacin; assay type: functional; conditions: read-out: Activity
# [21] = tested on: Rattus norvegicus; assay: Antiinflammatory activity in Wistar rat model of carrageenan-induced paw edema assessed as reduction in thickness of paw edema at 10 mg/kg, ip pretreated for 1 hr followed by carrageenan challenge and measured after 24 hrs (reference value: 0.83 +/-0.08 mm); assay type: functional; conditions: time 25 hrs
# [22] = tested on: Mus musculus; assay: Analgesic activity in albino mouse assessed protection against acetic acid-induced abdominal writhing at 10 mg/kg, ip pretreated for 1 hr followed by acetic acid challenge and measured starting 5 mins post acetic acid challenge for 10 mins relative to indomethacin; assay type: functional; conditions: time 75 min, 1.25 h
# [23] = tested on: Rattus norvegicus; assay: Antiinflammatory activity in Wistar rat model of carrageenan-induced paw edema assessed as reduction in thickness of paw edema at 10 mg/kg, ip pretreated for 1 hr followed by carrageenan challenge and measured after 2 hrs (reference value: 2.06 +/-0.09 mm); assay type: functional; conditions: time 3 hrs
# [24] = tested on: Candida albicans; assay: Antifungal activity against Candida albicans incubated for 18 to 24 hrs by CLSI method; assay type: functional; conditions: time 18-24 hrs
# [25] = tested on: Peritoneal macrophage; assay: Antiinflammatory activity in […] mouse Peritoneal macrophages assessed as reduction in LPS-induced NO production by measuring reduction in stimulation index at 10 uM preincubated for 1 hr followed by LPS stimulation measured after 24 hrs by Griess method (reference value: 27.31 +/- 2.56 uM); assay type: functional; conditions: time 25 hrs
# [26] = tested on: Streptococcus pyogenes; assay: Antibacterial activity against Streptococcus pyogenes ATCC 19615 incubated for 18 hrs by agar dilution method; assay type: functional
# [27] = tested on: Rattus norvegicus; assay: Anti-inflammatory activity in Wistar rat assessed as inhibition of carrageenan-induced paw edema at 10 mg/kg, ip pretreated for 1 hr followed by carrageenan challenge and measured after 1 hr relative to control (reference value: 0.00 +/-0.02 %); assay type: functional; conditions: time 2 hrs
# [28] = tested on: A549; assay: Antiproliferative activity against human A549 cells assessed as inhibition of cell growth after 72 hrs by MTT assay; assay type: functional, cell-based; conditions: A549, 72 h
# [29] = tested on: Mus musculus; assay: Analgesic activity in albino mouse assessed as forepaw licking/jumping latency time at 10 mg/kg, ip measured after 90 mins by hot plate test (reference value: 2.72 +/- 0.01 sec); assay type: functional; conditions: 1.5 h
# [30] = tested on: Rattus norvegicus; assay: Anti-inflammatory activity in Wistar rat assessed as inhibition of carrageenan-induced paw edema at 10 mg/kg, ip pretreated for 1 hr followed by carrageenan challenge and measured after 4 hr relative to indomethacin; assay type: functional; conditions: time 5 hrs
# [31] = tested on: Mus musculus; assay: Analgesic activity in albino mouse assessed protection against acetic acid-induced abdominal writhing at 10 mg/kg, ip pretreated for 1 hr followed by acetic acid challenge and measured starting 5 mins post acetic acid challenge for 10 mins relative to control (reference value: 0 %); assay type: functional; conditions: time 75 min, 1.25 h
# [32] = tested on: Mus musculus; assay: Analgesic activity in albino mouse assessed as protection at 10 mg/kg, ip measured after 120 mins by hot plate test (reference value: 0 %); assay type: functional; conditions: 2 h
# [33] = tested on: Rattus norvegicus; assay: Anti-inflammatory activity in Wistar rat assessed as inhibition of carrageenan-induced paw edema at 10 mg/kg, ip pretreated for 1 hr followed by carrageenan challenge and measured after 24 hr relative to control (reference value: 0.00 +/-0.3 %); assay type: functional; conditions: time 25 hrs
# [34] = tested on: MCF7; assay: Antiproliferative activity against human MCF7 cells assessed as inhibition of cell growth after 72 hrs by MTT assay; assay type: functional, cell-based; conditions: MCF7, 72 h
# [35] = tested on: Rattus norvegicus; assay: Anti-inflammatory activity in Wistar rat assessed as inhibition of carrageenan-induced paw edema at 10 mg/kg, ip pretreated for 1 hr followed by carrageenan challenge and measured after 2 hr relative to control (reference value: 0.00 +/-0.03 %); assay type: functional; conditions: time 3 hrs
# [36] = tested on: Mus musculus; assay: Analgesic activity in albino mouse assessed as protection at 10 mg/kg, ip measured after 90 mins by hot plate test (reference value: 0 %); assay type: functional; conditions: 1.5 h
# [37] = tested on: Mus musculus; assay: Analgesic activity in albino mouse assessed as forepaw licking/jumping latency time at 10 mg/kg, ip measured after 120 mins by hot plate test (reference value: 2.62 +/- 0.06 sec); assay type: functional; conditions: 2 h
# [38] = Ulcerogenic activity in fasted albino mouse assessed as incidence of gastric ulceration at 10 mg/kg, po for 3 days (reference value: 0 %); assay type: toxicity, organism-based; conditions: in vivo, 72 h, time 3 day
# [39] = tested on: Mus musculus; assay: Analgesic activity in albino mouse assessed as protection at 10 mg/kg, ip measured after 30 mins by hot plate test (reference value: 0 %); assay type: functional; conditions: 0.5 h
# [40] = tested on: Mus musculus; assay: Analgesic activity in albino mouse assessed as forepaw licking/jumping latency time at 10 mg/kg, ip measured after 60 mins by hot plate test (reference value: 3.42 +/- 0.03 sec); assay type: functional; conditions: 1 h
MIC [9],MIC [10],MIC [11],IC50 [14],SMILES,inhibition in vivo at 10 mg/kg [1],Activity [2],Activity_index [3],Activity [4],Activity [5],Activity [6],Time [7],inhibition in vivo at 10 mg/kg [8],Activity [12],UI [13],Activity [15],Activity [16],Activity [17],Activity [18],Activity [19],viability at 10 µM [20],other results
0.125 µg/mL and 0.178 µM,0.25 µg/mL and 0.355 µM,1 µg/mL and 1.42 µM,41.5 µM,COc1cc(/C=C/C(=O)/C=C(O)/C=C/c2ccc(OC(=O)[C@H](N)CCSC)c(OC)c2)ccc1OC(=O)[C@H](N)CCSC.Cl.Cl,98%,39.8%,1.01,0.03 mm,19.8,49.57%,5.36 s,65%,0.99 mm,0,0,0,54.5%,0.62 mm,Non-Toxic,120%,Activity [21]: 0.54 mm; Activity [22]: 86.5%; Activity [23]: 0.95 mm; MIC [24]: 1 µg/mL and 1.42 µM; Activity [25]: 13.77 µM; MIC [26]: 0.25 µg/mL and 0.355 µM; inhibition in vivo at 10 mg/kg [27]: 59%; IC50 [28]: 20 µM; Time [29]: 3.36 s; inhibition in vivo at 10 mg/kg [30]: 113%; Activity [31]: 53.3%; Activity [32]: 22.9%; inhibition in vivo at 10 mg/kg [33]: 35%; IC50 [34]: 10.2 µM; inhibition in vivo at 10 mg/kg [35]: 54%; Activity [36]: 23.5%; Time [37]: 3.22 s; Activity [38]: 0%; Activity [39]: 6.8%; Time [40]: 4.78 s
0.5 µg/mL and 0.9 µM,0.25 µg/mL and 0.45 µM,1 µg/mL and 1.8 µM,38.7 µM,COc1cc(/C=C/C(=O)/C=C(O)/C=C/c2ccc(OC(=O)CN)c(OC)c2)ccc1OC(=O)CN.Cl.Cl,88%,25.1%,0.99,0.17 mm,14.6,49.98%,5.04 s,74%,0.82 mm,0,0,0,81.9%,0.46 mm,Non-Toxic,122%,Activity [21]: 0.48 mm; Activity [22]: 106.5%; Activity [23]: 0.69 mm; MIC [24]: 1 µg/mL and 1.8 µM; Activity [25]: 13.66 µM; MIC [26]: 0.25 µg/mL and 0.45 µM; inhibition in vivo at 10 mg/kg [27]: 66%; IC50 [28]: 18.9 µM; Time [29]: 3.66 s; inhibition in vivo at 10 mg/kg [30]: 101%; Activity [31]: 65.6%; Activity [32]: 34.4%; inhibition in vivo at 10 mg/kg [33]: 42%; IC50 [34]: 9.15 µM; inhibition in vivo at 10 mg/kg [35]: 67%; Activity [36]: 34.6%; Time [37]: 3.52 s; Activity [38]: 0%; Activity [39]: 0.4%; Time [40]: 4.28 s
